Laboratory results as given in patent US4081441A, “Antibacterial agents” (priority 1977, dated 1978).
Like-named read-outs stand apart in the source and are kept apart here.

Columns and labels:
[1] = test system: Pseudomonas aeruginosa; test: Minimum Bactericidal Concentration, inoculum 10^5 cells/ml., at least 99.9% kill; assay type: cell-based
Excerpt: The effect of increased inoculum size on the bactericidal activity of BL-P1908 was investigated by a second test in which an inoculum size of 10^5 cells/ml. was used and the M.B.C. was defined as the lowest concentration of antibiotics in mcg./ml. needed to kill at least 99.9% of viable Pseudomonas cells.

[2] = test system: Pseudomonas aeruginosa; test: Minimum Inhibitory Concentration, agar dilution, overnight incubation at 37° C.; assay type: cell-based; conditions: Pseudomonas aeruginosa
Excerpt: A carbenicillin sample was also run for comparative purposes.

[3] = test system: Cl. difficile; test: M.I.C. against anaerobic bacteria, Cl. difficile; assay type: cell-based; conditions: Clostridioides difficile
[4] = test system: Pseudomonas aeruginosa; test: Minimum Bactericidal Concentration, inoculum 10^4 cells/ml., at least 99% kill; assay type: cell-based
Description: The bactericidal in vitro activity of sodium D(-)-6-(α-(1,2,4-triazine-3,5-dione-6-carboxamido)-4-hydroxyphenylacetamido)penicillanate (BL-P1908) against several strains of Pseudomonas aeruginosa was determined under two sets of conditions. In one test the Minimum Bactericidal Concentrations (M.B.C.) were determined using an inoculum size of 10^4 cells/ml. and the M.B.C. was defined as the lowest concentration of antibiotic in mcg./ml. needed to kill at least 99% of the viable Pseudomonas cells.

[5] = test system: Cl. cylindrosporum; test: M.I.C. against anaerobic bacteria, Cl. cylindrosporum; assay type: cell-based; conditions: strain A9562
[6] = test system: Cl. perfringens; test: microbe, parasite or virus in culture; assay type: cell-based; conditions: Clostridium perfringens
[7] = test system: Bacteroides fragilis; test: M.I.C. against anaerobic bacteria, Bacteroides fragilis; assay type: cell-based
[8] = test system: Cl. ramosum; test: M.I.C. against anaerobic bacteria, Cl. ramosum; assay type: cell-based; conditions: Thomasclavelia ramosa
[9] = Mouse blood (plasma) antibiotic levels after single intramuscular dose; assay type: in vivo; conditions: im, 40 mg/kg, mice, 40 mg./kg. i.m.; for concentration at 0.25 h: 15 min.; for concentration at 0.5 h: 30 min.; for concentration at 1 h: 60 min.; for concentration at 1.5 h: 90 min.
Description: Plasma antibiotic levels from mice administered a single intramuscular dose of 40 mg./kg. of BL-[…] or carbenicillin are shown in the following table.

[10] = test system: Cl. acidiurici; test: M.I.C. against anaerobic bacteria, Cl. acidiurici; assay type: cell-based; conditions: strain A9560
[11] = test system: Pseudomonas aeruginosa; test: animal or person; conditions: in Mus musculus, im
[12] = test system: Cl. septicum; test: M.I.C. against anaerobic bacteria, Cl. septicum; assay type: cell-based; conditions: Clostridium septicum; strain A21869
[13] = Ave. of Tests 1 and 2, read-out: Blood Level
[14] = Test 1 (Ave. of 6 mice tested), read-out: Blood Level
[15] = Test 2 (Ave. of 8 mice tested), read-out: Blood Level
[16] = read-out: PD50 /treatment, P. aeruginosa A9843A, challenge 1 × 10^4, i.m., at 0 and 2 hours
[17] = read-out: PD50 /treatment, P. aeruginosa A9843A, challenge 2 × 10^4, i.m., at 0 and 2 hours
[18] = read-out: PD50 /treatment, P. aeruginosa A9843A, challenge 3 × 10^4, i.m., at 0 and 2 hours
[19] = read-out: PD50 /treatment, P. aeruginosa A20599, challenge 3 × 10^4, i.m., at 0 and 2 hours
[20] = read-out: PD50 /treatment, P. aeruginosa A20599, challenge 6 × 10^4, i.m., at 0 and 2 hours

Molecule `CC1(C)S[C@@H]2[C@H](NC(=O)[C@H](NC(=O)c3n[nH]c(=O)[nH]c3=O)c3ccc(O)cc3)C(=O)N2[C@H]1C(=O)O` [BL-P1908, sodium D(-)-6-(α-(1,2,4-triazine-3,5-dione-6-carboxamido)-4-hydroxyphenylacetamido)penicillanate] has an MBC ([1]; strain 9843A) of 500 µg/mL, an MBC ([1]; strain 9910) of 500 µg/mL and an MBC ([1]; strain 9926) of 250 µg/mL. It also gave an MBC ([1]; strain 20126) of 32 µg/mL, an MBC ([1]; strain 20128) of 16 µg/mL and an MBC ([1]; strain 20227) of 4 µg/mL. For the same molecule, the MBC ([1]; strain 20228) was 250 µg/mL, the MBC ([1]; strain 20546) was 500 µg/mL and the MBC ([1]; strain 20557) was 1000 µg/mL. The MBC ([1]; strain 20574) was greater than 1000 µg/mL, the MBC ([1]; strain 20602) was 1000 µg/mL and the MBC ([1]; strain 20616) was 1000 µg/mL. The MBC ([1]; strain 20641) was 1000 µg/mL, the MBC ([1]; strain 20717) was greater than 1000 µg/mL and the MBC ([1]; strain 20726) was 1000 µg/mL. The MBC ([1]; strain 21336) was 1000 µg/mL, the MIC ([2]; strain A9502) was 2 µg/mL and the MIC ([2]; strain A9827) was 1 µg/mL. For the same molecule, the MIC ([2]; strain A9910) was 1 µg/mL, the MIC ([2]; strain A9923) was 2 µg/mL and the MIC ([2]; strain A9924) was 2 µg/mL. For the same molecule, the MIC ([2]; strain A9925) was 1 µg/mL, the MIC ([2]; strain A9926) was 1 µg/mL and the MIC ([2]; strain A9930) was 2 µg/mL. The MIC ([2]; strain A9931) was 1 µg/mL, the MIC ([2]; strain A15150) was 2 µg/mL and the MIC ([2]; strain A15151) was 8 µg/mL. For the same molecule, the MIC ([2]; strain A15194) was 4 µg/mL, the MIC ([2]; strain A15195) was 2 µg/mL and the MIC ([2]; strain A15196) was 2 µg/mL. The MIC ([2]; strain A20125) was 2 µg/mL, the MIC ([2]; strain A20126) was 0.5 µg/mL and the MIC ([2]; strain A20127) was 1 µg/mL. It also gave an MIC ([2]; strain A20128) of 1 µg/mL, an MIC ([2]; strain A20129) of 1 µg/mL and an MIC ([2]; strain A20130) of 1 µg/mL. The MIC ([2]; strain A20227) was 0.5 µg/mL, the MIC ([2]; strain A20228) was 1 µg/mL and the MIC ([2]; strain A20546) was 2 µg/mL. The MIC ([2]; strain A20557) was 4 µg/mL, the MIC ([2]; strain A20574) was 0.5 µg/mL and the MIC ([2]; strain A20602) was 2 µg/mL. It also gave an MIC ([2]; strain A20616) of 1 µg/mL, an MIC ([2]; strain A20641) of 0.5 µg/mL and an MIC ([2]; strain A20717) of 4 µg/mL. It also gave an MIC ([2]; strain A20726) of 1 µg/mL, an MIC ([2]; strain A21336) of 2 µg/mL and an MIC ([3]; strain A21675) of 2 µg/mL. The MIC ([3]; strain A21972) was 4 µg/mL, the MBC ([4]; strain 9843A) was 63 µg/mL and the MBC ([4]; strain 9910) was 1 µg/mL. It also gave an MBC ([4]; strain 9926) of 2 µg/mL, an MBC ([4]; strain 20126) of 2 µg/mL and an MBC ([4]; strain 20128) of 2 µg/mL. For the same molecule, the MBC ([4]; strain 20227) was 2 µg/mL, the MBC ([4]; strain 20228) was 8 µg/mL and the MBC ([4]; strain 20546) was 1 µg/mL. It also gave an MBC ([4]; strain 20557) of 16 µg/mL, an MBC ([4]; strain 20574) of 2 µg/mL and an MBC ([4]; strain 20616) of 2 µg/mL. For the same molecule, the MBC ([4]; strain 20641) was 4 µg/mL, the MBC ([4]; strain 20717) was 63 µg/mL and the MBC ([4]; strain 20726) was 2 µg/mL. The MBC ([4]; strain 21336) was 2 µg/mL, the MIC [5] was 16 µg/mL and the MIC ([6]; strain A21873) was 0.13 µg/mL. It also gave an MIC ([6]; strain A21874) of 0.13 µg/mL, an MIC ([6]; strain A21907) of 0.13 µg/mL and an MIC ([7]; strain A20920) of 1 µg/mL. The MIC ([7]; strain A20926) was 2 µg/mL, the MIC ([7]; strain A20927-1) was 1 µg/mL and the MIC ([7]; strain A20930) was 16 µg/mL. For the same molecule, the MIC ([7]; strain A20933) was 8 µg/mL, the MIC ([7]; strain A20934) was 4 µg/mL and the MIC ([7]; strain A20935) was 1 µg/mL. It also gave an MIC ([7]; strain A21870) of 16 µg/mL, an MIC ([7]; strain A21871) of 16 µg/mL and an MIC ([7]; strain A21872) of 16 µg/mL. The MIC ([7]; strain A21875) was 4 µg/mL, the MIC ([7]; strain A22053) was 8 µg/mL and the MIC ([7]; strain A27020) was 16 µg/mL. It also gave an MIC ([8]; strain A21883) of 0.25 µg/mL, an MIC ([8]; strain A21970) of 2 µg/mL and a concentration at 0.25 h [9, 13] of 26700 ng/mL. For the same molecule, the concentration at 0.25 h [9, 14] was 24900 ng/mL, the concentration at 0.25 h [9, 15] was 28400 ng/mL and the concentration at 0.5 h [9, 13] was 17300 ng/mL. It also gave a concentration at 0.5 h [9, 14] of 19400 ng/mL, a concentration at 0.5 h [9, 15] of 15100 ng/mL and a concentration at 1 h [9, 13] of 5300 ng/mL. It also gave a concentration at 1 h [9, 14] of 7500 ng/mL, a concentration at 1 h [9, 15] of 3000 ng/mL and a concentration at 1.5 h [9, 13] of less than 2900 ng/mL. It also gave a concentration at 1.5 h [9, 14] of less than 3900 ng/mL, a concentration at 1.5 h [9, 15] of less than 1800 ng/mL and an MIC [10] of 1 µg/mL. It also gave an ED50 [11, 16] of 4.8 mg/kg, an ED50 [11, 17] of 2.5 mg/kg and an ED50 [11, 18] of 11 mg/kg. It also gave an ED50 [11, 19] of 5.4 mg/kg, an ED50 [11, 20] of 9.6 mg/kg and an MIC [12] of 1 µg/mL.

With `CC1(C)S[C@@H]2[C@H](NC(=O)[C@H](NC(=O)c3n[nH]c(=S)[nH]c3=O)c3ccc(O)cc3)C(=O)N2[C@H]1C(=O)O` [BL-P1937, sodium D(-)-6-(α-(1,2,4-triazine-3-thione-5-one-6-carboxamido)-4-hydroxyphenylacetamido)-penicillanate] the MIC ([3]; strain A21675) was 4 µg/mL, the MIC ([3]; strain A21972) was 4 µg/mL and the MIC [5] was 0.25 µg/mL. For the same molecule, the MIC ([6]; strain A21873) was 0.063 µg/mL, the MIC ([6]; strain A21874) was 0.13 µg/mL and the MIC ([6]; strain A21907) was 0.25 µg/mL. The MIC ([7]; strain A20920) was 0.5 µg/mL, the MIC ([7]; strain A20926) was 2 µg/mL and the MIC ([7]; strain A20927-1) was 1 µg/mL. For the same molecule, the MIC ([7]; strain A20930) was 16 µg/mL, the MIC ([7]; strain A20933) was 4 µg/mL and the MIC ([7]; strain A20934) was 4 µg/mL. It also gave an MIC ([7]; strain A20935) of 2 µg/mL, an MIC ([7]; strain A21870) of 1 µg/mL and an MIC ([7]; strain A21871) of 2 µg/mL. For the same molecule, the MIC ([7]; strain A21872) was 16 µg/mL, the MIC ([7]; strain A21875) was 8 µg/mL and the MIC ([7]; strain A22053) was 2 µg/mL. For the same molecule, the MIC ([7]; strain A27020) was 8 µg/mL, the MIC ([8]; strain A21883) was 0.25 µg/mL and the MIC ([8]; strain A21970) was 2 µg/mL. It also gave an MIC [10] of 1 µg/mL, an ED50 [11, 16] of 11 mg/kg and an ED50 [11, 17] of 5.4 mg/kg. The ED50 [11, 18] was 11 mg/kg, the ED50 [11, 19] was roughly 13 mg/kg and the ED50 [11, 20] was 22 mg/kg. For the same molecule, the MIC [12] was 1 µg/mL.
